Assay results published in patent US8802597B2, “Herbicidal pyrimidines” (E I du Pont de Nemours and Company, priority 2003, dated 2014).

Columns and labels:
Format in all cases: in vivo
[1] = test system: junglerice (Echinochloa colona); assay: Test E flooded paddy water application; details: Flood, 21 days, scale 0 to 100 (0 no effect, 100 complete control)
From the text: (§1) Three plastic pots (ca. 16-cm diameter) per rate were partially filled with sterilized Tama silt loam soil comprising a 35:50:15 ratio of sand, silt and clay and 2.6% organic matter. Separate plantings for each of the three pots were as follows. Seeds from the U.S. of ducksalad (Heteranthera limosa), smallflower umbrella sedge (Cyperus difformis) and purple redstem (Ammannia coccinea), were planted into one 16-cm pot for each rate. Seeds from the U.S. of rice flatsedge (Cyperus iria), bearded (brdd.) sprangletop (Leptochloa fusca ssp. fascicularis), one stand of 9 or 10 water seeded rice seedlings (Oryza sativa cv. ‘Japonica-M202’), and one stand of 6 transplanted rice seedlings (Oryza sativa cv. ‘Japonica-M202’) were planted into one 16-cm pot for each rate. Seeds from the U.S. of barnyardgrass (Echinochloa crus-galli), late watergrass (Echinochloa oryzicola), early watergrass (Echinochloa oryzoides) and junglerice (Echinochloa colona) were planted into one 16-cm pot for each rate. Plantings were sequential so that crop and weed species were at the 2.0 to 2.5-leaf stage at time of treatment.
(§2) Potted plants were grown in a greenhouse with day/night temperature settings of 29.5/26.7° C., and supplemental balanced lighting was provided to maintain a 16-hour photoperiod. Test pots were maintained in the greenhouse until test completion.
(§3) At time of treatment, test pots were flooded to 3 cm above the soil surface, treated by application of test compounds directly to the paddy water, and then maintained at that water depth for the duration of the test. Effects of treatments on rice and weeds were visually evaluated by comparison to untreated controls after 21 days. Plant response ratings, summarized in Table E, are based on a scale of 0 to 100 where 0 is no effect and 100 is complete control. A dash (-) response means no test result.

[2] = test system: late watergrass (Echinochloa oryzicola); assay: Test E flooded paddy water application; details: Flood, 21 days, scale 0 to 100 (0 no effect, 100 complete control)
From the text: as §1, §2, §3

[3] = test system: ducksalad (Heteranthera limosa); assay: Test E flooded paddy water application; details: Flood, 21 days, scale 0 to 100 (0 no effect, 100 complete control)
From the text: as §1, §2, §3

[4] = test system: water seeded rice seedlings (Oryza sativa cv. ‘Japonica-M202’); assay: Test E flooded paddy water application; details: Flood, 21 days, scale 0 to 100 (0 no effect, 100 complete control)
From the text: as §1, §2, §3

[5] = test system: transplanted rice seedlings (Oryza sativa cv. ‘Japonica-M202’); assay: Test E flooded paddy water application; details: Flood, 21 days, scale 0 to 100 (0 no effect, 100 complete control)
From the text: as §1, §2, §3

[6] = test system: rice flatsedge (Cyperus iria); assay: Test E flooded paddy water application; details: Flood, 21 days, scale 0 to 100 (0 no effect, 100 complete control)
From the text: as §1, §2, §3

[7] = test system: early watergrass (Echinochloa oryzoides); assay: Test E flooded paddy water application; details: Flood, 21 days, scale 0 to 100 (0 no effect, 100 complete control)
From the text: as §1, §2, §3

[8] = test system: barnyardgrass (Echinochloa crus-galli); assay: Test E flooded paddy water application; details: Flood, 21 days, scale 0 to 100 (0 no effect, 100 complete control)
From the text: as §1, §2, §3

[9] = test system: purple redstem (Ammannia coccinea); assay: Test E flooded paddy water application; details: Flood, 21 days, scale 0 to 100 (0 no effect, 100 complete control)
From the text: as §1, §2, §3

[10] = test system: bearded (brdd.) sprangletop (Leptochloa fusca ssp. fascicularis); assay: Test E flooded paddy water application; details: Flood, 21 days, scale 0 to 100 (0 no effect, 100 complete control)
From the text: as §1, §2, §3

[11] = test system: smallflower umbrella sedge (Cyperus difformis); assay: Test E flooded paddy water application; details: Flood, 21 days, scale 0 to 100 (0 no effect, 100 complete control)
From the text: as §1, §2, §3

[12] = test system: crabgrass (Digitaria sanguinalis); assay: Test A pre/postemergence
Procedure, shortened: (§4)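 Compared with untreated controls, treated plants were visually rated for injury on a 0 (none) to 100 (complete control) scale about ten days after spraying. Pre- and postemergence applications used one solvent/surfactant formulation; postemergence plants measured 2–10 cm.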

[13] = test system: morningglory (Ipomoea spp.); assay: Test A pre/postemergence
Procedure, shortened: as §4

[14] = test system: redroot pigweed (Amaranthus retroflexus); assay: Test A pre/postemergence
Procedure, shortened: as §4

[15] = test system: velvetleaf (Abutilon theophrasti); assay: Test A pre/postemergence
Procedure, shortened: as §4

[16] = test system: barnyardgrass (Echinochloa crus-galli); assay: Test A pre/postemergence
Procedure, shortened: as §4

[17] = test system: giant foxtail (Setaria faberi); assay: Test A pre/postemergence
Procedure, shortened: as §4

[18] = Postemergence, 125 g ai/ha, 0 to 100 scale (0 no effect, 100 complete control)
[19] = Postemergence, 500 g ai/ha, 0 to 100 scale (0 no effect, 100 complete control)
[20] = Preemergence, 125 g ai/ha, 0 to 100 scale where 0 is no effect and 100 is complete control, approximately ten days
[21] = Preemergence, 500 g ai/ha, 0 to 100 scale where 0 is no effect and 100 is complete control, approximately ten days

CCOC(=O)c1nc(-c2ccc(C)cc2)nc(N)c1Cl [Compound 62]
20: Junglerice plant response rating ([1]; 32 g ai/ha) | Watergrass, Late plant response rating ([2]; 64 g ai/ha) | Watergrass, Late plant response rating ([2]; 125 g ai/ha) | Watergrass, Late plant response rating ([2]; 250 g ai/ha) | Watergrass, Late plant response rating ([2]; 500 g ai/ha)
90: Plant response rating, Velvetleaf [15, 18]
75: Redstem plant response rating ([9]; 32 g ai/ha) | Sprangletop, Brdd. plant response rating ([10]; 500 g ai/ha) | Plant response rating, Pigweed [14, 21] | Plant response rating, Velvetleaf [15, 21]
50: Junglerice plant response rating ([1]; 250 g ai/ha) | Barnyardgrass plant response rating ([8]; 250 g ai/ha)
80: Sedge, Umbrella plant response rating ([11]; 64 g ai/ha) | Plant response rating, Barnyardgrass [16, 19] | Plant response rating, Foxtail, Giant [17, 19]
65: Junglerice plant response rating ([1]; 500 g ai/ha) | Flatsedge, Rice plant response rating ([6]; 250 g ai/ha)
85: Redstem plant response rating ([9]; 64 g ai/ha) | Redstem plant response rating ([9]; 125 g ai/ha)
60: Rice, Water Seeded plant response rating ([4]; 500 g ai/ha) | Plant response rating, Crabgrass [12, 21] | Plant response rating, Pigweed [14, 19]
35: Plant response rating, Crabgrass [12, 19] | Plant response rating, Morningglory [13, 19] | Plant response rating, Morningglory [13, 21]
30: Junglerice plant response rating ([1]; 64 g ai/ha) | Rice, Transplanted plant response rating ([5]; 500 g ai/ha) | Sprangletop, Brdd. plant response rating ([10]; 125 g ai/ha) | Plant response rating, Pigweed [14, 18]
45: Flatsedge, Rice plant response rating ([6]; 125 g ai/ha) | Sprangletop, Brdd. plant response rating ([10]; 250 g ai/ha) | Plant response rating, Barnyardgrass [16, 21]
40: Junglerice plant response rating ([1]; 125 g ai/ha)
15: Plant response rating, Barnyardgrass [16, 18]
10: Rice, Water Seeded plant response rating ([4]; 250 g ai/ha) | Plant response rating, Morningglory [13, 18]
0: Watergrass, Late plant response rating ([2]; 32 g ai/ha) | Rice, Water Seeded plant response rating ([4]; 32 g ai/ha) | Rice, Water Seeded plant response rating ([4]; 64 g ai/ha) | Rice, Water Seeded plant response rating ([4]; 125 g ai/ha) | Rice, Transplanted plant response rating ([5]; 32 g ai/ha) | Rice, Transplanted plant response rating ([5]; 64 g ai/ha) | Rice, Transplanted plant response rating ([5]; 125 g ai/ha) | Rice, Transplanted plant response rating ([5]; 250 g ai/ha) | Flatsedge, Rice plant response rating ([6]; 32 g ai/ha) | Flatsedge, Rice plant response rating ([6]; 64 g ai/ha) | Watergrass, Early plant response rating ([7]; 32 g ai/ha) | Watergrass, Early plant response rating ([7]; 64 g ai/ha) | Watergrass, Early plant response rating ([7]; 125 g ai/ha) | Watergrass, Early plant response rating ([7]; 250 g ai/ha) | Watergrass, Early plant response rating ([7]; 500 g ai/ha) | Barnyardgrass plant response rating ([8]; 32 g ai/ha) | Barnyardgrass plant response rating ([8]; 64 g ai/ha) | Barnyardgrass plant response rating ([8]; 125 g ai/ha) | Sprangletop, Brdd. plant response rating ([10]; 32 g ai/ha) | Sprangletop, Brdd. plant response rating ([10]; 64 g ai/ha) | Plant response rating, Crabgrass [12, 18] | Plant response rating, Crabgrass [12, 20] | Plant response rating, Morningglory [13, 20] | Plant response rating, Pigweed [14, 20] | Plant response rating, Velvetleaf [15, 20] | Plant response rating, Barnyardgrass [16, 20] | Plant response rating, Foxtail, Giant [17, 18] | Plant response rating, Foxtail, Giant [17, 20] | Plant response rating, Foxtail, Giant [17, 21]
100: Ducksalad plant response rating ([3]; 32 g ai/ha) | Ducksalad plant response rating ([3]; 64 g ai/ha) | Ducksalad plant response rating ([3]; 125 g ai/ha) | Ducksalad plant response rating ([3]; 250 g ai/ha) | Ducksalad plant response rating ([3]; 500 g ai/ha) | Flatsedge, Rice plant response rating ([6]; 500 g ai/ha) | Barnyardgrass plant response rating ([8]; 500 g ai/ha) | Redstem plant response rating ([9]; 500 g ai/ha) | Sedge, Umbrella plant response rating ([11]; 250 g ai/ha) | Sedge, Umbrella plant response rating ([11]; 500 g ai/ha)
95: Redstem plant response rating ([9]; 250 g ai/ha) | Sedge, Umbrella plant response rating ([11]; 125 g ai/ha) | Plant response rating, Velvetleaf [15, 19]
70: Sedge, Umbrella plant response rating ([11]; 32 g ai/ha)
